Experimental data taken from US8524745B2 (Allergan, Inc., priority 2011, dated 2013).

Target: T1, CCR2 (Homo sapiens, UniProt P41597)
T1 construct: expressed in transfected cells
Experiment: CCR2 calcium activity assay on FLIPR Tetra in HEK-Gqi5 cells stably expressing CCR2
Assay type: cell-based
Method: HEK-Gqi5 cells stably expressing CCR2 were cultured in (DMEM high glucose, 10% FBS, 1% PSA, 400 μg/ml geneticin and 50 μg/ml hygromycin. Appropriate positive control chemokines (MCP-1, MIP1A or RANTES) was used as the positive control agonist for screening compound-induced calcium activity assayed on the FLIPR^Tetra. The drug plates were prepared in 384-well microplates using the EP3 and the MuItiPROBE robotic liquid handling systems. Compounds were synthesized and tested for CCR2 activity.

T1 sequence (P41597 whole entry, species assumed): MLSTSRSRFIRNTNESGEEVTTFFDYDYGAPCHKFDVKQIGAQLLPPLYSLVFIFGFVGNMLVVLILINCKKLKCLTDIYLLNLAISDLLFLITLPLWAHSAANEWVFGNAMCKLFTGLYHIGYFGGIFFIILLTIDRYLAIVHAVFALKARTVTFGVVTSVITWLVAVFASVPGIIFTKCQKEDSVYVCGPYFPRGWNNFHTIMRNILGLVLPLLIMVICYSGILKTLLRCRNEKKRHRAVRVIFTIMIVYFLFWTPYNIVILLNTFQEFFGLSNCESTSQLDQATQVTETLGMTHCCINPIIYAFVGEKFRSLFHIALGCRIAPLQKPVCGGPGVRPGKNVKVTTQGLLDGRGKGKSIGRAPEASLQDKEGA

SMILES	CCR2 % ANTAG	IC50
Cc1ccc(S(=O)(=O)Nc2cc(Cl)c(Cl)cc2NS(=O)(=O)c2ccc3c(c2)c(=O)sn3C)s1 [N-(4,5-dichloro-2-{[(5-methyl-2-thienyl)sulfonyl]amino}phenyl)-1-methyl-3-oxo-1,3-dihydro-2,1-benzisothiazole-5-sulfonamide]	95%	0.851 µM
Cc1cc(NS(=O)(=O)c2ccc3c(c2)c(=O)sn3C)c(C)cc1Cl [N-(4-chloro-2,5-dimethylphenyl)-1-methyl-3-oxo-1,3-dihydro-2,1-benzisothiazole-5-sulfonamide]	80%	1.85 µM
COc1cc(Cl)c(C)cc1NS(=O)(=O)c1ccc2c(c1)c(=O)sn2C [N-(4-chloro-2-methoxy-5-methylphenyl)-1-methyl-3-oxo-1,3-dihydro-2,1-benzisothiazole-5-sulfonamide]	0%	> 8.3 µM
COc1ccc(C(=O)Nc2ccc(Cl)cc2NS(=O)(=O)c2ccc3c(c2)c(=O)sn3C)cc1 [N-(4-chloro-2-{[(1-methyl-3-oxo-1,3-dihydro-2,1-benzisothiazol-5-yl)sulfonyl]amino}phenyl)-4-methoxybenzamide]	56%	–
CC(=O)Nc1ccc(S(=O)(=O)Nc2ccc(Cl)cc2NS(=O)(=O)c2ccc3c(c2)c(=O)sn3C)cc1 [N-(4-{[(4-chloro-2-{[(1-methyl-3-oxo-1,3-dihydro-2,1-benzisothiazol-5-yl)sulfonyl]amino}phenyl)amino]sulfonyl}phenyl)acetamide]	80%	2.23 µM
COc1ccc(S(=O)(=O)Nc2ccc(Cl)cc2NS(=O)(=O)c2ccc3c(c2)c(=O)sn3C)c(OC)c1 [N-(5-chloro-2-{[(2,4-dimethoxyphenyl)sulfonyl]amino}phenyl)-1-methyl-3-oxo-1,3-dihydro-2,1-benzisothiazole-5-sulfonamide]	95%	1.68 µM
COc1ccccc1S(=O)(=O)Nc1ccc(Cl)cc1NS(=O)(=O)c1ccc2c(c1)c(=O)sn2C [N-(5-chloro-2-{[(2-methoxyphenyl)sulfonyl]amino}phenyl)-1-methyl-3-oxo-1,3-dihydro-2,1-benzisothiazole-5-sulfonamide]	91%	0.397 µM
Cn1sc(=O)c2cc(S(=O)(=O)Nc3cc(Cl)ccc3NS(=O)(=O)c3ccc(Cl)c(Cl)c3)ccc21 [N-(5-chloro-2-{[(3,4-dichlorophenyl)sulfonyl]amino}phenyl)-1-methyl-3-oxo-1,3-dihydro-2,1-benzisothiazole-5-sulfonamide]	97%	1.29 µM
COc1ccc(S(=O)(=O)Nc2ccc(Cl)cc2NS(=O)(=O)c2ccc3c(c2)c(=O)sn3C)cc1OC [N-(5-chloro-2-{[(3,4-dimethoxyphenyl)sulfonyl]amino}phenyl)-1-methyl-3-oxo-1,3-dihydro-2,1-benzisothiazole-5-sulfonamide]	93%	1.02 µM
Cn1sc(=O)c2cc(S(=O)(=O)Nc3cc(Cl)ccc3NS(=O)(=O)c3cc(Cl)cc(Cl)c3)ccc21 [N-(5-chloro-2-{[(3,5-dichlorophenyl)sulfonyl]amino}phenyl)-1-methyl-3-oxo-1,3-dihydro-2,1-benzisothiazole-5-sulfonamide]	94%	2.6 µM
Cn1sc(=O)c2cc(S(=O)(=O)Nc3cc(Cl)ccc3NS(=O)(=O)c3cccc(Cl)c3)ccc21 [N-(5-chloro-2-{[(3-chlorophenyl)sulfonyl]amino}phenyl)-1-methyl-3-oxo-1,3-dihydro-2,1-benzisothiazole-5-sulfonamide]	91%	0.493 µM
COc1cccc(S(=O)(=O)Nc2ccc(Cl)cc2NS(=O)(=O)c2ccc3c(c2)c(=O)sn3C)c1 [N-(5-chloro-2-{[(3-methoxyphenyl)sulfonyl]amino}phenyl)-1-methyl-3-oxo-1,3-dihydro-2,1-benzisothiazole-5-sulfonamide]	83%	0.402 µM
CCOc1ccc(S(=O)(=O)Nc2ccc(Cl)cc2NS(=O)(=O)c2ccc3c(c2)c(=O)sn3C)cc1 [N-(5-chloro-2-{[(4-ethoxyphenyl)sulfonyl]amino}phenyl)-1-methyl-3-oxo-1,3-dihydro-2,1-benzisothiazole-5-sulfonamide]	84%	2.79 µM
Cn1sc(=O)c2cc(S(=O)(=O)Nc3cc(Cl)ccc3NS(=O)(=O)c3ccc(O)cc3)ccc21 [N-(5-chloro-2-{[(4-hydroxyphenyl)sulfonyl]amino}phenyl)-1-methyl-3-oxo-1,3-dihydro-2,1-benzisothiazole-5-sulfonamide]	95%	0.491 µM
CC(C)Oc1ccc(S(=O)(=O)Nc2ccc(Cl)cc2NS(=O)(=O)c2ccc3c(c2)c(=O)sn3C)cc1 [N-(5-chloro-2-{[(4-isopropoxyphenyl)sulfonyl]amino}phenyl)-1-methyl-3-oxo-1,3-dihydro-2,1-benzisothiazole-5-sulfonamide]	72%	–
CC(C)c1ccc(S(=O)(=O)Nc2ccc(Cl)cc2NS(=O)(=O)c2ccc3c(c2)c(=O)sn3C)cc1 [N-(5-chloro-2-{[(4-isopropylphenyl)sulfonyl]amino}phenyl)-1-methyl-3-oxo-1,3-dihydro-2,1-benzisothiazole-5-sulfonamide]	94%	0.985 µM
COc1ccc(S(=O)(=O)Nc2ccc(Cl)cc2NS(=O)(=O)c2ccc3c(c2)c(=O)sn3C)cc1 [N-(5-chloro-2-{[(4-methoxyphenyl)sulfonyl]amino}phenyl)-1-methyl-3-oxo-1,3-dihydro-2,1-benzisothiazole-5-sulfonamide]	78%	0.21 µM
Cc1ccc(S(=O)(=O)Nc2ccc(Cl)cc2NS(=O)(=O)c2ccc3c(c2)c(=O)sn3C)cc1 [N-(5-chloro-2-{[(4-methylphenyl)sulfonyl]amino}phenyl)-1-methyl-3-oxo-1,3-dihydro-2,1-benzisothiazole-5-sulfonamide]	95%	0.68 µM
Cc1ccc(S(=O)(=O)Nc2ccc(Cl)cc2NS(=O)(=O)c2ccc3c(c2)c(=O)sn3C)s1 [N-(5-chloro-2-{[(5-methyl-2-thienyl)sulfonyl]amino}phenyl)-1-methyl-3-oxo-1,3-dihydro-2,1-benzisothiazole-5-sulfonamide]	95%	0.497 µM
Cn1sc(=O)c2cc(S(=O)(=O)Nc3cc(Cl)cc4c3OCCO4)ccc21 [N-(7-chloro-2,3-dihydro-1,4-benzodioxin-5-yl)-1-methyl-3-oxo-1,3-dihydro-2,1-benzisothiazole-5-sulfonamide]	63%	1.67 µM

More lines, now with the values ahead:

CCR2 % ANTAG	IC50	SMILES
94%	2.07 µM	Cn1sc(=O)c2cc(S(=O)(=O)Nc3ccccc3NS(=O)(=O)c3cc(C(F)(F)F)cc(C(F)(F)F)c3)ccc21 [N-[2-({[3,5-bis(trifluoromethyl)phenyl]sulfonyl}amino)phenyl]-1-methyl-3-oxo-1,3-dihydro-2,1-benzisothiazole-5-sulfonamide]
100%	0.412 µM	Cn1sc(=O)c2cc(S(=O)(=O)Nc3ccccc3NS(=O)(=O)c3ccc(Cl)c(C(F)(F)F)c3)ccc21 [N-[2-({[4-chloro-3-(trifluoromethyl)phenyl]sulfonyl}amino)phenyl]-1-methyl-3-oxo-1,3-dihydro-2,1-benzisothiazole-5-sulfonamide]
84%	0.529 µM	Cn1sc(=O)c2cc(S(=O)(=O)Nc3cc(Cl)c(Cl)cc3NS(=O)(=O)c3ccc(Cl)c(C(F)(F)F)c3)ccc21 [N-[4,5-dichloro-2-({[4-chloro-3-(trifluoromethyl)phenyl]sulfonyl}amino)phenyl]-1-methyl-3-oxo-1,3-dihydro-2,1-benzisothiazole-5-sulfonamide]
69%	0.678 µM	CN(C)c1cccc(S(=O)(=O)Nc2ccc(Cl)cc2NS(=O)(=O)c2ccc3c(c2)c(=O)sn3C)c1 [N-[5-chloro-2-({[3-(dimethylamino)phenyl]sulfonyl}amino)phenyl]-1-methyl-3-oxo-1,3-dihydro-2,1-benzisothiazole-5-sulfonamide]
64%	1.65 µM	CN(C)c1ccc(S(=O)(=O)Nc2ccc(Cl)cc2NS(=O)(=O)c2ccc3c(c2)c(=O)sn3C)cc1 [N-[5-chloro-2-({[4-(dimethylamino)phenyl]sulfonyl}amino)phenyl]-1-methyl-3-oxo-1,3-dihydro-2,1-benzisothiazole-5-sulfonamide]
88%	0.24 µM	Cn1sc(=O)c2cc(S(=O)(=O)Nc3cc(Cl)ccc3NS(=O)(=O)c3ccc(Cl)c(C(F)(F)F)c3)ccc21 [N-[5-chloro-2-({[4-chloro-3-(trifluoromethyl)phenyl]sulfonyl}amino)phenyl]-1-methyl-3-oxo-1,3-dihydro-2,1-benzisothiazole-5-sulfonamide]
67%	1.46 µM	Cn1sc(=O)c2cc(S(=O)(=O)Nc3cccc4c3Oc3ccccc3O4)ccc21 [N-dibenzo[b,e][1,4]dioxin-1-yl-1-methyl-3-oxo-1,3-dihydro-2,1-benzisothiazole-5-sulfonamide]
20%	2.49 µM	Cn1sc(=O)c2cc(S(=O)(=O)NC(C)(C)CNS(=O)(=O)c3cccs3)ccc21 [N-{1,1-dimethyl-2-[(2-thienylsulfonyl)amino]ethyl}-1-methyl-3-oxo-1,3-dihydro-2,1-benzisothiazole-5-sulfonamide]
54%	–	Cn1sc(=O)c2cc(S(=O)(=O)N3CCCC(NS(=O)(=O)c4cccs4)C3)ccc21 (stereo not drawn) [N-{1-[(1-methyl-3-oxo-1,3-dihydro-2,1-benzisothiazol-5-yl)sulfonyl]piperidin-3-yl}thiophene-2-sulfonamide]
44%	2.76 µM	Cn1sc(=O)c2cc(S(=O)(=O)N3CCC(NS(=O)(=O)c4cccs4)C3)ccc21 (stereo not drawn) [N-{1-[(1-methyl-3-oxo-1,3-dihydro-2,1-benzisothiazol-5-yl)sulfonyl]pyrrolidin-3-yl}thiophene-2-sulfonamide]
